Assay results: patent publication US8591943B2, “Pyrazolo[1,5-a]pyrimidine derivatives as mTOR inhibitors” (Merck Sharp & Dohme Corp., priority 2009, dated 2013)
Where two headings read alike, the source gives them in different places.

Legend:
mTOR enzyme = mTOR enzyme (Homo sapiens, UniProt P42345); test: mTOR Kinase Assay; assay type: biochemical
Procedure: The mTOR assay buffer contains 10 mM hepes (pH 7.4), 50 mM NaCl, 100 μg/ml BSA, 50 mM B-glycerophosphate, 10 mM MnCl2 and 0.5 mM DTT. 20 ng of mTOR enzyme is preincubated with the compound for 10 minutes. 5 μM ATP and 0.1 μM GSTS6K is added. The reaction is incubated for one hour at 30° C. Anti phospho p70S6K (about 1.7 ng/well) and anti GSTXL665 (1:1 Ratio with the substrate GSTS6K) are added after incubating. The plates are read at least 2 hours after adding the anti phospho p70S6K and the anti GSTXL665.

recombinant His-CHK1 = target: T1, recombinant His-CHK1 (Homo sapiens, UniProt O14757); test: CHK1 In Vitro Kinase Assay
T1 sequence (O14757 1-265 limits assumed): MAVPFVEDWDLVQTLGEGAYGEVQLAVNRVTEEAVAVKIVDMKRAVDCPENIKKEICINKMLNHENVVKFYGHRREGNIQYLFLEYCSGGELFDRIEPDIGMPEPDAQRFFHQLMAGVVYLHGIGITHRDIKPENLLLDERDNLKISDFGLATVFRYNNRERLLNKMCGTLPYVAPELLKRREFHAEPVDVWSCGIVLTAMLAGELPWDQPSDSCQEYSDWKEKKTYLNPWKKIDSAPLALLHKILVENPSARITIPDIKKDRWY

Cyclin E/CDK2 = target: T2, Cyclin E/CDK2 (Homo sapiens, UniProt P24941); test: In Vitro Cyclin E/CDK2 Kinase Assay; assay type: biochemical
T2 construct: made in house; host or cells: SF9 cells, baculovirus co-infection
Excerpt: Cyclin E was cloned into pVL1393 (Pharmingen, La Jolla, Calif.) by PCR, with the addition of 5 histidine residues at the amino-terminal end to allow purification on nickel resin. The expressed protein was approximately 45 kDa. CDK2 was cloned into pVL1393 by PCR, with the addition of a haemaglutinin epitope tag at the carboxy-terminal end (YDVPDYAS). The expressed protein was approximately 34 kDa in size.
Recombinant baculoviruses expressing cyclin E and CDK2 were co-infected into SF9 cells at an equal multiplicity of infection (MOI=5), for 48 hrs. Cells were harvested by centrifugation at 1000 RPM for 10 minutes, then pellets lysed on ice for 30 minutes in five times the pellet volume of lysis buffer containing 50 mM Tris pH 8.0, 150 mM NaCl, 1% NP40, 1 mM DTT and protease inhibitors (Roche Diagnostics GmbH, Mannheim, Germany). Lysates were spun down at 15000 RPM for 10 minutes and the supernatant retained. 5 mL of nickel beads (for one liter of SF9 cells) were washed three times in lysis buffer (Qiagen GmbH, Germany). Imidazole was added to the baculovirus supernatant to a final concentration of 20 mM, then incubated with the nickel beads for 45 minutes at 4° C. Proteins were eluted with lysis buffer containing 250 mM imidazole. Eluate was dialyzed about 15 hours in 2 liters of kinase buffer containing 50 mM Tris pH 8.0, 1 mM DTT, 10 mM MgCl2, 100 μM sodium orthovanadate and 20% glycerol. Enzyme was stored in aliquots at −70° C.
Cyclin E/CDK2 kinase assays can be performed as described below in low protein binding 96-well plates (Corning Inc, Corning, N.Y.).
The substrate used in these reactions is a biotinylated peptide derived from Histone H1 (from Amersham, UK). The substrate is thawed on ice and diluted to 2 μM in kinase buffer. Test compounds are diluted in 10% DMSO to desirable concentrations. For each kinase reaction, 20 μL of the 50 μg/mL enzyme solution (1 μg of enzyme) and 20 μl of the 2 μM substrate solution are mixed, then combined with 10 μL of diluted compound in each well for testing. The kinase reaction is initiated by addition of 50 μL of 2 μM ATP and 0.1 μCi of ^33P-ATP (from Amersham, UK). The reaction is allowed to run for 1 hour at room temperature, then is stopped by adding 200 μL of stop buffer containing 0.1% Triton X-100, 1 mM ATP, 5 mM EDTA, and 5 mg/mL streptavidine coated SPA beads (from Amersham, UK) for 15 minutes. The SPA beads are then captured onto a 96-well GFIB filter plate (Packard/Perkin Elmer Life Sciences) using a Filtermate universal harvester (Packard/Perkin Elmer Life Sciences.). Non-specific signals are eliminated by washing the beads twice with 2M NaCl then twice with 2 M NaCl with 1% phosphoric acid. The radioactive signal can then be measured using, for example, a TopCount 96 well liquid scintillation counter (from Packard/Perkin Elmer Life Sciences).

SMILES	IC50 (mTOR enzyme; rated A-F) [µM]	IC50 (recombinant His-CHK1) [µM]	IC50 (Cyclin E/CDK2; rated A-F) [µM]	IC50 (mTOR enzyme) [µM]	IC50 (Cyclin E/CDK2) [µM]
Nc1c(Br)c(C2CCC3(CC2)OCCO3)nc2c(-c3cnc4ccccc4c3)cnn12 [Compound 6.7]	< 0.1	> 5	–	–	–
COC(=O)[C@H]1CC[C@@H](c2nc3c(-c4cnc5ccccc5c4)cnn3c(N)c2Br)CN1 (stereo in doubt) [Compound 2.7]	0.101 to 0.2	> 5	> 5	–	–
Nc1c(Br)c([C@H]2CC[C@H](C(=O)O)CC2)nc2c(-c3ccc(-c4cccnc4)nc3)cnn12 [Compound 4.11]	< 0.1	> 5	> 5	–	–
N#Cc1c(C2CCC(CC(=O)O)CC2)nc2c(-c3cnc4ccccc4c3)cnn2c1N (stereo not shown) [Compound 6.6, [4-(7-Amino-6-cyano-3-quinolin-3-yl-pyrazolo[1,5-a]pyrimidin-5-yl)-cyclohexyl]-acetic acid]	–	–	–	0.0014	–
Nc1c(Br)c(N2CCCS(=O)(=O)CC2)nc2c(-c3cnc4ccccc4c3)cnn12 [Compound 10.64]	< 0.1	> 5	> 5	–	–
Nc1c(Br)c(C2CCC(C(=O)O)NC2)nc2c(-c3cnc4ccccc4c3)cnn12 (stereo not shown) [Compound 2.2, 5-(7-amino-6-bromo-3-(quinolin-3-yl)pyrazolo[1,5-a]pyrimidin-5-yl)piperidine-2-carboxylic acid]	< 0.1	> 5	> 5	–	–
Nc1c(Cl)c(N2CCN3C(=O)NC(=O)C3C2)nc2c(-c3cnc4ccccc4c3)cnn12 (stereo not shown) [Compound 10.61]	< 0.1	> 5	> 5	–	–
Nc1c(Br)c(N2CCS(=O)(=O)CC2)nc2c(-c3cnc4ccccc4c3)cnn12 [Compound 10.31]	< 0.1	> 5	> 5	–	–
COC(=O)C1CCC(c2cc(N)n3ncc(-c4cnn(C)c4)c3n2)CN1 (stereo not shown) [Compound 2.8]	0.501 to 1	1 to 5	> 5	–	–
Nc1c(Br)c(N2CCc3[nH]cnc3C2)nc2c(-c3cnc4ccccc4c3)cnn12 [Compound 10.19]	< 0.1	> 5	> 5	–	–
COC(=O)C1CCC(c2nc3c(-c4cnc5ccccc5c4)cnn3c(N)c2Br)CN1 (stereo not shown) [Compound 2.3, Methyl 5-(7-amino-6-bromo-3-(quinolin-3-yl)pyrazolo[1,5-a]pyrimidin-5-yl)piperidine-2-carboxylate]	< 0.1	1 to 5	> 5	–	–
Nc1cc(C2CCC(C(=O)O)NC2)nc2c(-c3cnc4ccccc4c3)cnn12 (stereo not shown) [Compound 1.1, 5-(7-amino-3-(quinolin-3-yl)pyrazolo[1,5-a]pyrimidin-5-yl)piperidine-2-carboxylic acid]	–	–	–	0.0124	–
Nc1c(Br)c(C2CCS(=O)(=O)CC2)nc2c(-c3cnc4ccccc4c3)cnn12 [Compound 8.15]	< 0.1	> 5	> 5	–	–
CS(=O)(=O)NC(=O)C[C@H]1CC[C@H](c2nc3c(-c4cnc5ccccc5c4)cnn3c(N)c2Br)CC1 [Compound 7.5]	< 0.1	> 5	> 5	–	–
Nc1c(Br)c(N2CCC(CC(=O)O)CC2)nc2c(-c3cnc4ccccc4c3)cnn12 [Compound 10.47]	–	22	–	0.0113	10
Nc1c(Br)c([C@H]2CC[C@H]3C(=O)NC(=O)N3C2)nc2c(-c3cnc4ccccc4c3)cnn12 [Compound 3.10]	< 0.1	> 5	0.501 to 1	–	–
Nc1c(Br)c(CN2CCOCC2)nc2c(-c3cnc4ccccc4c3)cnn12 [Compound 13.2, 6-bromo-5-(morpholinomethyl)-3-(quinolin-3-yl)pyrazolo[1,5-a]pyrimidin-7-amine]	< 0.1	> 5	> 5	–	–
CN(C)C(=O)C1CCC(c2cc(N)n3ncc(-c4cnn(C)c4)c3n2)CN1 (stereo not shown) [Compound 2.9]	1 to 5	> 5	–	–	–

SMILES	IC50 (mTOR enzyme; rated A-F) [µM]	IC50 (recombinant His-CHK1) [µM]	IC50 (Cyclin E/CDK2; rated A-F) [µM]	IC50 (mTOR enzyme) [µM]	IC50 (Cyclin E/CDK2) [µM]
CS(=O)(=O)N1CCC(c2cc(N)n3ncc(-c4cnc5ccccc5c4)c3n2)C1 (stereo not shown) [Compound 8.17]	< 0.1	> 5	> 5	–	–
Nc1cc(C2CCC(C(=O)O)NC2)nc2c(-c3cn[nH]c3)cnn12 (stereo not shown) [Compound 1.5]	< 0.1	> 5	> 5	–	–
CS(=O)(=O)N1CCC(c2nc3c(-c4cnc5ccccc5c4)cnn3c(N)c2Br)C1 (stereo not shown) [Compound 8.1]	< 0.1	> 5	> 5	–	–
COC(=O)[C@@H]1CC[C@H](c2nc3c(-c4cnc5ccccc5c4)cnn3c(N)c2Br)CN1 (stereo in doubt) [Compound 2.6]	< 0.1	1 to 5	> 5	–	–
Cn1cc(-c2cnn3c(N)cc(C4CCC(C(=O)O)NC4)nc23)cn1 (stereo not shown) [Compound 1.2]	–	–	–	0.146	–
Nc1cc(CN2CCN3C(=O)NC(=O)C3C2)nc2c(-c3cnc4ccccc4c3)cnn12 (stereo not shown) [Compound 13.3]	0.201 to 0.5	> 5	> 5	–	–
COC(=O)[C@@H]1CC[C@H](c2cc(N)n3ncc(-c4cnn(C)c4)c3n2)CN1 (stereo in doubt) [Compound 2.5]	0.101 to 0.2	0.501 to 1	> 5	–	–
CS(=O)(=O)N1CCC(c2nc3c(-c4cnc5ccccc5c4)cnn3c(N)c2Br)CC1 [Compound 8.18]	< 0.1	> 5	1 to 5	–	–
CC(=O)c1c(N2CCS(=O)(=O)CC2)nc2c(-c3cnc4ccccc4c3)cnn2c1N [Compound 10.62]	< 0.1	> 5	> 5	–	–
COC(=O)C1CCC(c2nc3c(-c4cnn(C)c4)cnn3c(N)c2Br)CN1 (stereo not shown) [Compound 2.4]	< 0.1	0.101 to 0.2	> 5	–	–
Nc1c(Br)c([C@H]2CC[C@H](C(=O)O)CC2)nc2c(-c3ccc(-c4ccncc4)nc3)cnn12 [Compound 4.12]	< 0.1	> 5	> 5	–	–
Nc1c(Br)c(-c2ccc(CC(=O)O)cc2)nc2c(-c3cnc4ccccc4c3)cnn12 [Compound 11.1, [4-(7-Amino-6-bromo-3-quinolin-3-yl-pyrazolo[1,5-a]pyrimidin-5-yl)-phenyl]-acetic acid]	–	–	–	0.0148	–
COC(=O)c1ccc(-c2cc(N)n3ncc(-c4cnc5ccccc5c4)c3n2)cn1 [Compound 11.3]	1 to 5	> 5	> 5	–	–
N#CCC1CCC(c2nc3c(-c4cnc5ccccc5c4)cnn3c(N)c2Br)CC1 (stereo not shown) [Compound 5.2]	< 0.1	> 5	> 5	–	–
CS(=O)(=O)NC(=O)C[C@H]1CC[C@@H](c2nc3c(-c4cnc5ccccc5c4)cnn3c(N)c2Br)CC1 [Compound 7.2, 2-(4-(7-amino-6-bromo-3-(quinolin-3-yl)pyrazolo[1,5-a]pyrimidin-5-yl)cyclohexyl)-N-(methylsulfonyl)acetamide]	< 0.1	> 5	> 5	–	–
Cn1cc(-c2cnn3c(N)c(Br)c(C4CCC(C(=O)O)C4)nc23)cn1 (stereo not shown) [Compound 4.5]	0.101 to 0.2	> 5	> 5	–	–
CC(=O)N1CCC(c2nc3c(-c4cnc5ccccc5c4)cnn3c(N)c2Br)C1 (stereo not shown) [Compound 8.7]	< 0.1	> 5	–	–	–
